Data set [1] has as its target T1, Toll-like receptor 4 (Homo sapiens, UniProt O00206). Briefly: Inhibition of human TLR4 in LPS-stimulated HEK-Blue hTLR4 cells assessed as reduction in SEAP activity incubated for 24 hrs by microplate reader assay. Type of data set: cell-based.
A short description of data set [2]: Cytotoxicity against HEK-Blue hTLR4 cells incubated for 24 hrs by CCK8 assay. Type of data set: toxicity, cell-based. To be noted: human.
A short description of data set [3]: Inhibition of TLR4 to MD2 (unknown origin) protein-protein interaction. More on the design: species or system Homo sapiens.
The nature of data set [4]: AUC(0 to t) in C57BL/6 mouse at 10 mg/kg, ip measured upto 24 hrs. Type of data set: ADME, organism-based. The conditions noted are these: in vivo.
Data set [5] can be described thus: MRT(0 to t) in C57BL/6 mouse at 10 mg/kg, ip measured upto 24 hrs. The conditions noted are these: in vivo. It is filed as ADME, organism-based.
Data set [6] in a line: Clearance in C57BL/6 mouse at 10 mg/kg, ip measured upto 24 hrs. Type of data set: ADME, organism-based. To be noted: in vivo.
The nature of data set [7]: Half-life in C57BL/6 mouse at 10 mg/kg, ip measured upto 24 hrs. Type of data set: ADME, organism-based. To be noted: in vivo.
The nature of data set [8]: Cmax in C57BL/6 mouse at 10 mg/kg, ip measured upto 24 hrs. The conditions noted are these: in vivo. It is filed as ADME, organism-based.
The test system of data set [9] is Mus musculus. Briefly: Antiinflammatory activity in LPS-induced C57BL/6 mouse sepsis model assessed as survival rate at 10 mg/kg, ip preadministered with compound for 1 hr followed by LPS stimulation and measured after 24 hrs. It is filed as functional. To be noted: time 25 hrs.
The nature of data set [10]: Apparent volume of distribution in C57BL/6 mouse at 10 mg/kg, ip measured upto 24 hrs. Type of data set: ADME, organism-based. The conditions noted are these: in vivo.
Data set [11] is described as follows: Tmax in C57BL/6 mouse at 10 mg/kg, ip measured upto 24 hrs. The conditions noted are these: in vivo. It is filed as ADME, organism-based.
Data set [12] has as its system Mus musculus. Briefly: Antiinflammatory activity in LPS-induced C57BL/6 mouse sepsis model assessed as reduction in TNFalpha mRNA expression at 5 mg/kg, ip preadministered with compound for 1 hr followed by LPS stimulation and measured after 15 hrs by RT-qPCR analysis. The conditions noted are these: time 16.0 hrs. Type of data set: functional, organism-based. (In general: Real-time PCR tracks product formation cycle by cycle.)

The target in data set [13] is T1, Toll-like receptor 4. The experiment in a line: Inhibition of TLR4 (unknown origin) homodimerization.

“And” between values parts separate entries of the source, which are not always exact repeats. Equal values may be shown once. The source made the active and inactive calls. The rule behind the calls is not given here. A value given as a limit tells only on which side of the number the result lay.

What is called IC50 is the midpoint of a concentration-inhibition curve. Broadly, the MRT last is the average time that molecules of a dose stay in the body. Broadly, the Cmax is the highest concentration seen after dosing. As usually defined, the Tmax is the time at which the peak concentration occurs.

T1 sequence (O00206 whole entry): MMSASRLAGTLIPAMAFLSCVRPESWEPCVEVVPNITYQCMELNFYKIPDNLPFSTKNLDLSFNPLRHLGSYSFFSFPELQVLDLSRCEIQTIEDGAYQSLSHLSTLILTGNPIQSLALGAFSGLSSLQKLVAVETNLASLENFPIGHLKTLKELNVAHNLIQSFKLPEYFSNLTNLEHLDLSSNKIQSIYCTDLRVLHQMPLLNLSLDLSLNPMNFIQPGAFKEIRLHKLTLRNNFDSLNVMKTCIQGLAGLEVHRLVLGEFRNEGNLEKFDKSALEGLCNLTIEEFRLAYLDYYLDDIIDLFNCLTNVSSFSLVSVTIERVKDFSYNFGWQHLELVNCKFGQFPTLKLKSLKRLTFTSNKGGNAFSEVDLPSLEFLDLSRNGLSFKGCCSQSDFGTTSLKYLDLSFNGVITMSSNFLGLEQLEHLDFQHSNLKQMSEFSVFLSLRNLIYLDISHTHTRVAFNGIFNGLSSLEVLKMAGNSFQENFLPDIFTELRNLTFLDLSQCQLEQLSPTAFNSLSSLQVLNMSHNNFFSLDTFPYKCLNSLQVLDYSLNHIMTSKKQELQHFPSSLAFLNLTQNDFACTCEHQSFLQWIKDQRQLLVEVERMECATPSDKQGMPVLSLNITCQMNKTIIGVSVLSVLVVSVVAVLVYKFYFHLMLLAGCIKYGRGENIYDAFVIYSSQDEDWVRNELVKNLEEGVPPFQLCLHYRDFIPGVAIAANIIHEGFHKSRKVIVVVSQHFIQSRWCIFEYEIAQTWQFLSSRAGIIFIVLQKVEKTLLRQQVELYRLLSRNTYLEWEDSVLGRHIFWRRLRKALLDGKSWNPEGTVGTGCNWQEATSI

For the compound `Cc1ccc(-c2cc(C(F)(F)F)n3ncc(C(=O)N4CCC5(CC4)OCCO5)c3n2)cc1`, in data set [1], the IC50 is more than 50 µM. This compound showed an IC50 at 24 h in data set [2] of more than 50 µM.
Regarding `NC1CCN(C(=O)c2cnn3c(C(F)F)cc(-c4ccc(Cl)cc4)nc23)CC1`, in [1], the IC50 was more than 50 µM. Moreover, the IC50 at 24 h in [2] was more than 50 µM.
With `CCOC(=O)C1=CCCC[C@H]1S(=O)(=O)Nc1ccc(F)cc1Cl` [RESATORVID], in [1], the IC50 is 0.047 µM and 0.06 µM. The IC50 at 24 h in data set [2] is more than 50 µM.
On to `O=C(Nc1ccc(S(=O)(=O)NC2CC2)cc1)c1cnn2c(C(F)F)cc(-c3ccc(Cl)cc3)nc12`, for which the half-inhibitory concentration (IC50) in [1] turned out to be 10.5 µM. In data set [2], this compound registered an IC50 at 24 h of more than 50 µM.
The matching figures for `FC(F)c1cc(-c2ccc(Cl)cc2)nc2c(C(=S)N3C[C@H]4CCCC[C@H]4C3)cnn12`: more than 50 µM and more than 50 µM.
In [3], `CCOc1ccc(OCC(O)CN(C)Cc2c(C)nn(Cc3ccccc3Cl)c2C)cc1` (stereo not drawn) came in with a concentration for half-maximal inhibition (IC50) of 48.1 µM.
`CN1CCN(C(=O)c2cnn3c(C(F)F)cc(-c4ccc(Cl)cc4)nc23)CC1`: the IC50 in data set [1] worked out at 30.6 µM. This compound displayed a half-maximal inhibitory concentration (IC50) at 24 h in data set [2] of more than 50 µM.
In the case of `Cc1nn(Cc2ccccc2Cl)c(C)c1CN(C)CC(O)COc1ccc(Cl)cc1` (stereo not drawn), the 50% inhibitory concentration (IC50) in [3] came to 18.7 µM.
With `CC(=O)N1CCN(C(=O)c2cnn3c(C(F)F)cc(-c4ccc(Cl)cc4)nc23)CC1`, in [1], the half-maximal inhibitory concentration (IC50) was more than 50 µM. The IC50 at 24 h in [2] is more than 50 µM.
For `O=C(c1cnn2c(C(F)F)cc(-c3ccc(Cl)cn3)nc12)N1C[C@H]2CCCC[C@H]2C1`, the IC50 in [1] came to 11.8 µM. The compound also had an IC50 at 24 h in data set [2] of more than 50 µM.
As to `O=C(c1cnn2c(C(F)F)cc(-c3ccc(F)cc3)nc12)N1CCC2(CC1)OCCO2`, in [1], the IC50 is more than 50 µM. In data set [2], this compound yielded an IC50 at 24 h of more than 50 µM.
In the case of `O=C(c1cnn2c(C(F)F)cc(-c3ccc(Cl)cc3)nc12)N1C[C@H]2CCCC[C@H]2C1`, the AUCt in [4] stood at 1560 ng·h/mL. In [5], the MRT last at 24 h was 2.55 h. Besides, in data set [6], the CL turned out to be 107 mL/min/kg. The compound also returned a t1/2 in data set [7] of 2.74 h. The Cmax in [8] stood at 760 ng/mL. Moreover, the survival at 10 mg/kg in data set [9] amounted to 60%. Moreover, in data set [10], the Vz turned out to be 25.4 L/kg. In data set [11], the Tmax is 0.333 h.
Take `C[C@@H]1C[C@H]2[C@@H]3CCC4=CC(=O)C=C[C@]4(C)[C@@]3(F)[C@@H](O)C[C@]2(C)[C@@]1(O)C(=O)CO`: the result in [12] was inactive.
On to `O=C(c1cnn2c1NC(c1ccc(Cl)cc1)CC2C(F)F)N1C[C@H]2CCCC[C@H]2C1` (stereo partly drawn), for which the IC50 in data set [1] was more than 50 µM. The compound further yielded a 50% inhibitory concentration (IC50) at 24 h in [2] of more than 50 µM.
Consider `O=C(c1cnn2c(C(F)F)cc(-c3ccc(Br)cc3)nc12)N1CCC2(CC1)OCCO2`, for which the IC50 in data set [1] was more than 50 µM. This compound gave an IC50 at 24 h in data set [2] of more than 50 µM.
Turning to `O=C(Oc1ccnc2c(Br)cccc12)c1cnn2c(C(F)F)cc(-c3ccc(Cl)cc3)nc12`, in data set [1], the IC50 turned out to be 15.5 µM. For the same compound, the 50% inhibitory concentration (IC50) at 24 h in [2] is more than 50 µM.
The like results for `O=C(c1cnn2c(C(F)(F)F)cc(-c3ccc(Cl)cc3)nc12)N1CCC2(CC1)OCCO2` were, in that order, more than 50 µM and more than 50 µM.
With `O=C(c1cnn2c(C(F)F)cc(-c3ccc(Cl)cc3)nc12)N1CCSCC1`, the IC50 in [1] was more than 50 µM. Also, in data set [2], the IC50 at 24 h was more than 50 µM.
Turning to `O=C(c1cnn2c(C(F)F)cc(-c3ccc(Cl)cc3)nc12)N1CCC2(CC1)OCCO2`, the IC50 in [1] was determined as 4.94 µM. The 50% inhibitory concentration (IC50) at 24 h in data set [2] was more than 50 µM.
In the case of `CC(C)(C)OC(=O)NC1CCN(C(=O)c2cnn3c(C(F)F)cc(-c4ccc(Cl)cc4)nc23)CC1`, the IC50 in [1] came out at 24 µM. For the same compound, half-maximal inhibition in data set [2] (IC50 at 24 h) required 45.9 µM.
The matching figures for `O=C(c1cnn2c(C(F)F)cc(C34CC5CC(CC(C5)C3)C4)nc12)N1C[C@H]2CCCC[C@H]2C1`: more than 50 µM and more than 50 µM.
The like results for `O=C(c1cnn2c(C(F)F)cc(-c3ccc(Cl)cc3)nc12)N1CCC2(CCCCC2)CC1` were, in that order, more than 50 µM and more than 50 µM.
The matching figures for `COc1ccc(-c2cc(C(F)F)n3ncc(C(=O)N4CCC5(CC4)OCCO5)c3n2)cc1OC`: more than 50 µM and more than 50 µM.
Regarding `CC(C)(C)OC(=O)N1CCN(C(=O)c2cnn3c(C(F)F)cc(-c4ccc(Cl)cc4)nc23)CC1`, in [1], the IC50 is more than 50 µM. Further, the IC50 at 24 h in data set [2] is more than 50 µM.
Consider `FC(F)c1cc(-c2ccc(Cl)cc2)nc2cc(C(=S)N3C[C@H]4CCCC[C@H]4C3)nn12`, for which the concentration for half-maximal inhibition (IC50) in [1] is more than 50 µM. This compound had an IC50 at 24 h in [2] of more than 50 µM.
For the compound `O=C(c1cnn2c(O)cc(-c3ccc(Cl)cc3)nc12)N1CCC2(CC1)OCCO2`, the IC50 in data set [1] is more than 50 µM. The same compound showed an IC50 at 24 h in data set [2] of more than 50 µM.
`Cc1ccc(-c2cc(C(F)F)n3ncc(C(=O)N4CCC5(CC4)OCCO5)c3n2)cc1`: the IC50 in [1] and in data set [13] was 14 µM each time. Further, the IC50 at 24 h in data set [2] was more than 50 µM.

For the origin of these results see ChEMBL document CHEMBL6092176, “Discovery of pyrazolo[1,5-a]pyrimidine derivatives targeting TLR4-TLR4∗ homodimerization via AI-powered next-generation screening” (Eur J Med Chem, 2024).
